From patent US20150141381A1, “TETRACYCLINE COMPOUNDS HAVING TARGET THERAPEUTIC ACTIVITIES” (Paratek Pharmaceuticals, Inc., priority 2001, published 2015)
Where two headings read alike, the source gives them in different places.

Key:
[1] = test system: S. aureus RN450; assay: In Vitro Anti-Bacterial Activity Assay (MIC), gram positive; assay type: cell-based; settings: for MIC: Staphylococcus aureus, RN450, 18 h
[2] = test system: E. coli mL308 225; assay: In Vitro Anti-Bacterial Activity Assay (MIC), gram negative; assay type: cell-based; settings: for MIC: Escherichia coli, ML308225, 18 h
[3] = gram positive bacteria, read-out: Antibiotic Activity Gram + (MIC)
[4] = gram negative bacteria, read-out: Antibiotic Activity Gram − (MIC)
[5] = MIC class, Table 3, read-out: Antibiotic Activity Gram +
[6] = MIC class, Table 3, read-out: Antibiotic Activity Gram −
[7] = read-out: Antibiotic Activity Gram +
[8] = read-out: Antibiotic Activity Gram −
[9] = MIC class, Table 3 (Continued), read-out: Gram+ activity
[10] = MIC class, Table 3 (Continued), read-out: Gram− activity

SMILES | MIC [1, 3] [µg/mL] | MIC [2, 4] [µg/mL] | MIC [1, 5] [µg/mL] | MIC [2, 6] [µg/mL] | also measured
CN(C)c1cc(-c2ccc(CN3CCN(CCO)CC3)o2)c(O)c2c1C[C@H]1C[C@H]3[C@H](N(C)C)C(O)=C(C(N)=O)C(=O)[C@@]3(O)C(O)=C1C2=O | < 4 | > 4 | – | – | –
C[C@H]1c2ccc(N)c(O)c2C(=O)C2=C(O)[C@]3(O)C(=O)C(C(N)=O)=C(O)[C@@H](N(C)C)[C@@H]3[C@@H](O)[C@@H]21 | > 4 | > 4 | – | – | –
COc1ccc(-c2ccc(O)c3c2C[C@H]2C[C@H]4[C@H](N(C)C)C(O)=C(C(N)=O)C(=O)[C@@]4(O)C(O)=C2C3=O)cc1C=O [HW] | – | – | < 4 | < 4 | –
CC(=O)c1ccc(O)c2c1C[C@H]1C[C@H]3[C@H](N(C)C)C(O)=C(C(N)=O)C(=O)[C@@]3(O)C(O)=C1C2=O [BJ] | – | – | < 4 | < 4 | –
CN1CCN(c2cc(N(C)C)c3c(c2O)C(=O)C2=C(O)[C@]4(O)C(=O)C(C(N)=O)=C(O)[C@@H](N(C)C)[C@@H]4C[C@@H]2C3)CC1 | > 4 | > 4 | – | – | –
CCCNCc1ccc(OC)c(-c2ccc(O)c3c2C[C@H]2C[C@H]4C(N(C)C)C(O)=C(C(N)=O)C(=O)[C@@]4(O)C(O)=C2C3=O)c1 (stereo partly shown) [EF] | – | – | < 4 | < 4 | –
CN(C)[C@@H]1C(O)=C(C(N)=O)C(=O)[C@@]2(O)C(O)=C3C(=O)c4c(O)ccc(-c5ccc(CNC(C)(C)C)o5)c4C[C@H]3C[C@@H]12 [MD] | – | – | < 4 | < 4 | –
CN(C)c1ccc(-c2cc(CN)c(O)c3c2C[C@H]2C[C@H]4[C@@H](N(C)C)C(O)=C(C(N)=O)C(=O)[C@@]4(O)C(O)=C2C3=O)cc1 [HQ] | – | – | < 4 | > 4 | –
COC(=O)C(CO)NC(=O)c1cccc(-c2ccc(O)c3c2C[C@H]2C[C@H]4[C@H](N(C)C)C(O)=C(C(N)=O)C(=O)[C@@]4(O)C(O)=C2C3=O)c1 (stereo partly shown) | < 4 | > 4 | – | – | –
COC(=O)CCC(=O)Nc1ccc(-c2ccc(O)c3c2C[C@H]2C[C@H]4[C@H](N(C)C)C(O)=C(C(N)=O)C(=O)[C@@]4(O)C(O)=C2C3=O)cc1 | < 4 | > 4 | – | – | –
CN(C)c1cc(NCc2cc[nH]n2)c(O)c2c1C[C@H]1C[C@H]3[C@H](N(C)C)C(O)=C(C(N)=O)C(=O)[C@@]3(O)C(O)=C1C2=O | > 4 | > 4 | – | – | –
COc1ccc(OC(=O)Nc2ccc(-c3ccc(O)c4c3C[C@H]3C[C@H]5[C@@H](N(C)C)C(O)=C(C(N)=O)C(=O)[C@@]5(O)C(O)=C3C4=O)cc2)cc1 [GC] | – | – | – | – | MIC [1, 7]: > 4 µg/mL; MIC [2, 8]: > 4 µg/mL
CC1c2ccc(-c3ccccc3)c(O)c2C(=O)C2=C(O)[C@]3(O)C(=O)C(C(N)=O)=C(O)[C@@H](N(C)C)[C@@H]3[C@@H](O)[C@@H]21 (stereo partly shown) | – | – | – | – | MIC [1, 9]: < 4 µg/mL; MIC [2, 10]: < 4 µg/mL
CN(C)[C@@H]1C(O)=C(C(N)=O)C(=O)[C@@]2(O)C(O)=C3C(=O)c4c(O)c(N)cc(-c5ccoc5)c4C[C@H]3C[C@@H]12 [KT] | – | – | < 4 | < 4 | –
CN(C)[C@@H]1C(O)=C(C(N)=O)C(=O)[C@@]2(O)C(O)=C3C(=O)c4c(O)ccc(-c5ccc(NC(=O)OC(C)(C)C)cc5)c4C[C@H]3C[C@@H]12 | < 4 | < 4 | – | – | –
CN(C)[C@@H]1C(O)=C(C(N)=O)C(=O)[C@@]2(O)C(O)=C3C(=O)c4c(O)ccc(C#Cc5ccc(N(O)O)cc5)c4C[C@H]3C[C@@H]12 | – | – | – | – | MIC [1, 9]: < 4 µg/mL; MIC [2, 10]: < 4 µg/mL
CN(C)[C@@H]1C(O)=C(C(N)=O)C(=O)[C@@]2(O)C(O)=C3C(=O)c4c(O)c(CN5CCCCC5)cc(-c5ccccn5)c4C[C@H]3C[C@@H]12 | < 4 | > 4 | – | – | –
CN(C)[C@@H]1C(O)=C(C(N)=O)C(=O)[C@@]2(O)C(O)=C3C(=O)c4c(O)ccc(C5CCCC5)c4C[C@H]3C[C@@H]12 | < 4 | < 4 | – | – | –
CN(C)c1cc(CNC(=O)C2(N)CC2)c(O)c2c1C[C@H]1C[C@H]3[C@H](N(C)C)C(O)=C(C(N)=O)C(=O)[C@@]3(O)C(O)=C1C2=O | < 4 | > 4 | – | – | –
CCC(=O)Nc1ccc2c(c1O)C(=O)C1=C(O)[C@]3(O)C(=O)C(C(N)=O)=C(O)[C@@H](N(C)C)[C@@H]3C[C@@H]1C2 | < 4 | < 4 | – | – | –
C[C@H]1c2ccc(-c3cccc(CN4CCN(C)CC4)c3)c(O)c2C(=O)C2=C(O)[C@]3(O)C(=O)C(C(N)=O)=C(O)[C@@H](N(C)C)[C@@H]3[C@@H](O)[C@@H]21 [JA] | – | – | > 4 | > 4 | –
CN(C)c1cc(CNC(=O)Oc2ccccc2)c(O)c2c1C[C@H]1C[C@H]3[C@H](N(C)C)C(O)=C(C(N)=O)C(=O)[C@@]3(O)C(O)=C1C2=O [EP] | – | – | – | – | MIC [1, 7]: < 4 µg/mL; MIC [2, 8]: > 4 µg/mL

SMILES | MIC [1, 3] [µg/mL] | MIC [2, 4] [µg/mL] | MIC [1, 5] [µg/mL] | MIC [2, 6] [µg/mL] | also measured
CN(C)[C@@H]1C(O)=C(C(N)=O)C(=O)[C@@]2(O)C(O)=C3C(=O)c4c(O)ccc(-c5cc6ccccc6o5)c4C[C@H]3C[C@@H]12 [drawing 3311] | – | – | – | – | MIC [1, 9]: < 4 µg/mL; MIC [2, 10]: < 4 µg/mL
CCNCc1cc(N(C)C)c2c(c1O)C(=O)C1=C(O)[C@]3(O)C(=O)C(C(N)=O)=C(O)[C@@H](N(C)C)[C@@H]3C[C@@H]1C2 | < 4 | > 4 | – | – | –
CN(C)[C@@H]1C(O)=C(C(N)=O)C(=O)[C@@]2(O)C(O)=C3C(=O)c4c(O)ccc(-c5ccc(CNCC(F)(F)F)cc5)c4C[C@H]3C[C@@H]12 [drawing 3506] | – | – | – | – | Antibiotic Activity Gram + (MIC) ([1]; gram positive bacteria): ** (compounds with MIC less than or equal to 4 μg/ml are indicated with **); Antibiotic Activity Gram − (MIC) ([2]; gram negative bacteria): ** (compounds with MIC less than or equal to 4 μg/ml are indicated with **)
CN(C)C(=O)CNc1cc(N(C)C)c2c(c1O)C(=O)C1=C(O)[C@]3(O)C(=O)C(C(N)=O)=C(O)[C@@H](N(C)C)[C@@H]3C[C@@H]1C2 | > 4 | > 4 | – | – | –
CCc1cc(N)c(O)c2c1C[C@H]1C[C@H]3[C@H](N(C)C)C(O)=C(C(N)=O)C(=O)[C@@]3(O)C(O)=C1C2=O | < 4 | < 4 | – | – | –
CN(C)c1cc(NC(=N)NCc2ccccc2)c(O)c2c1C[C@H]1C[C@H]3C(N(C)C)C(O)=C(C(N)=O)C(=O)[C@@]3(O)C(O)=C1C2=O (stereo partly shown) [GM] | – | – | > 4 | > 4 | –
CN(C)[C@@H]1C(O)=C(C(N)=O)C(=O)[C@@]2(O)C(O)=C3C(=O)c4c(O)ccc(-c5ccccc5Cl)c4C[C@H]3C[C@@H]12 | – | – | – | – | MIC [1, 9]: < 4 µg/mL; MIC [2, 10]: < 4 µg/mL
CN(C)c1cc(CO)c(O)c2c1C[C@H]1C[C@H]3[C@H](N(C)C)C(O)=C(C(N)=O)C(=O)[C@@]3(O)C(O)=C1C2=O | < 4 | > 4 | – | – | –
Cc1ccc(-c2ccc(O)c3c2C[C@H]2C[C@H]4[C@H](N(C)C)C(O)=C(C(N)=O)C(=O)[C@@]4(O)C(O)=C2C3=O)cn1 | < 4 | < 4 | – | – | –
CCN(CC)Cc1cc(-c2ccoc2)c2c(c1O)C(=O)C1=C(O)[C@]3(O)C(=O)C(C(N)=O)=C(O)[C@@H](N(C)C)[C@@H]3C[C@@H]1C2 | < 4 | > 4 | – | – | –
CN(C)[C@@H]1C(O)=C(C(N)=O)C(=O)[C@@]2(O)C(O)=C3C(=O)c4c(O)ccc(C#Cc5ccc(NS(C)(=O)=O)cc5)c4C[C@H]3C[C@@H]12 [BU] | – | – | < 4 | > 4 | –
CN(C)c1cc(CNc2nc(-c3ccc(F)cc3)co2)c(O)c2c1C[C@H]1C[C@H]3[C@H](N(C)C)C(O)=C(C(N)=O)C(=O)[C@@]3(O)C(O)=C1C2=O | > 4 | > 4 | – | – | –
CCCCOc1ccc(I)c2c1C(=O)C1=C(O)[C@]3(O)C(=O)C(C(N)=O)=C(O)[C@@H](N(C)C)[C@@H]3C[C@@H]1C2 [OS] | – | – | > 4 | > 4 | –
CN(C)[C@@H]1C(O)=C(C(N)=O)C(=O)[C@@]2(O)C(O)=C3C(=O)c4c(O)ccc(-c5ccc(CNC6CCCCC6)o5)c4C[C@H]3C[C@@H]12 [LK] | – | – | < 4 | < 4 | –
CCc1cc(NCC(C)C)c(O)c2c1C[C@H]1C[C@H]3[C@H](N(C)C)C(O)=C(C(N)=O)C(=O)[C@@]3(O)C(O)=C1C2=O | < 4 | < 4 | – | – | –
CN(C)c1cc(NC(=O)Oc2ccc(Cl)cc2)c(O)c2c1C[C@H]1C[C@H]3[C@H](N(C)C)C(O)=C(C(N)=O)C(=O)[C@@]3(O)C(O)=C1C2=O [DP] | – | – | – | – | MIC [1, 7]: > 4 µg/mL; MIC [2, 8]: > 4 µg/mL
C[C@H]1c2ccc(-c3ccc(N(C)C)cc3)c(O)c2C(=O)C2=C(O)[C@]3(O)C(=O)C(C(N)=O)=C(O)[C@@H](N(C)C)[C@@H]3[C@@H](O)[C@@H]21 | < 4 | < 4 | – | – | –
CN(C)c1cc(NC(=O)CNC(C)(C)C)c(O)c2c1C[C@H]1C[C@H]3[C@H](N(C)C)C(O)=C(C(N)=O)C(=O)[C@@]3(O)C(O)=C1C2=O [DZ] | – | – | < 4 | < 4 | –
C[C@H]1c2ccc(C(C)(C)C)c(O)c2C(=O)C2=C(O)[C@]3(O)C(=O)C(C(N)=O)=C(O)[C@@H](N(C)C)[C@@H]3[C@@H](O)[C@@H]21 [O] | – | – | < 4 | > 4 | –
CCCCOC(=O)C#Cc1cc(N(C)C)c2c(c1O)C(=O)C1=C(O)[C@]3(O)C(=O)C(C(N)=O)=C(O)[C@@H](N(C)C)[C@@H]3C[C@@H]1C2 [DL] | – | – | > 4 | > 4 | –
CN(C)CC#Cc1cc(N(C)C)c2c(c1O)C(=O)C1=C(O)[C@]3(O)C(=O)C(C(N)=O)=C(O)[C@@H](N(C)C)[C@@H]3C[C@@H]1C2 | – | – | – | – | MIC [1, 9]: > 4 µg/mL; MIC [2, 10]: > 4 µg/mL
CC(=O)c1cc(C(C)=O)c2c(c1O)C(=O)C1=C(O)[C@]3(O)C(=O)C(C(N)=O)=C(O)[C@@H](N(C)C)[C@@H]3C[C@@H]1C2 [EB] | – | – | < 4 | > 4 | –
